Measurements: patent US20070128217A1 (priority 2003, published 2007)

How the values were obtained:
[1] = tested on: antibodies in sera from SARS patients (sera 1a, 1b, 2, 6, 37, 62, London, SARS-yellow, SARS-green); format: binding, human; parameters: Binding of serum 6 to linear peptides of protein X1 of SARS-CoV Urbani / Binding of serum 37 to linear peptides of protein X1 of SARS-CoV Urbani / Binding of serum 6 to looped/cyclic peptide (PEPSCAN-ELISA) / Binding of serum 37 to looped/cyclic peptide (PEPSCAN-ELISA) / Binding of serum 37 to looped/cyclic peptides of protein X1 of SARS-CoV Urbani / Binding of serum 6 to linear peptides of protein X2 / Binding of serum 37 to linear peptides of protein X2 / Binding of serum 37 to looped/cyclic peptides of protein X2 of SARS-CoV Urbani / Binding of serum 6 to linear peptides of protein M of SARS-CoV Urbani / Binding of serum 37 to linear peptides of protein M of SARS-CoV Urbani / Binding of serum 6 to looped/cyclic peptides of protein M of SARS-CoV Urbani / Binding of serum 37 to looped/cyclic peptides of protein M of SARS-CoV Urbani / Binding of serum 6 to linear peptides of protein X3 of SARS-CoV Urbani / Binding of serum 37 to linear peptides of protein X3 of SARS-CoV Urbani / Binding of serum 37 to looped/cyclic peptides of protein X3 of SARS-CoV Urbani / Binding of serum 6 to linear peptides of protein X4 of SARS-CoV Urbani / Binding of serum 37 to linear peptides of protein X4 of SARS-CoV Urbani / Binding of serum 37 to looped/cyclic peptides of protein X4 of SARS-CoV Urbani / Binding of serum 6 to linear peptides of protein X5 of SARS-CoV Urbani / Binding of serum 37 to linear peptides of protein X5 of SARS-CoV Urbani / Binding of serum 37 to looped/cyclic peptides of protein X5 of SARS-CoV Urbani / Binding of serum 6 to linear peptides of protein N of SARS-CoV Urbani / Binding of serum 37 to linear peptides of protein N of SARS-CoV Urbani / Binding of serum 6 to linear peptide (PEPSCAN-ELISA) / Binding of serum 1a to looped/cyclic peptides of protein N of SARS-CoV Urbani / Binding of serum 1b to looped/cyclic peptides of protein N of SARS-CoV Urbani / Binding of serum 2 to looped/cyclic peptides of protein N of SARS-CoV Urbani / Binding of serum 6 to looped/cyclic peptides of protein N of SARS-CoV Urbani / Binding of serum 37 to looped/cyclic peptides of protein N of SARS-CoV Urbani / Binding of serum 62 to looped/cyclic peptides of protein N of SARS-CoV Urbani / Binding of serum London to looped/cyclic peptides of protein N of SARS-CoV Urbani / Binding of serum SARS-green to looped/cyclic peptides of protein N of SARS-CoV Urbani: unit not given here
[2] = tested on: recombinant human anti-SARS-CoV antibody 03-018; format: binding; parameters: Binding of antibody 03-018 to linear peptides of the N protein of SARS-CoV Urbani / Binding of antibody 03-018 to looped/cyclic peptides of the N protein of SARS-CoV Urbani: unit not given here
[3] = tested on: rabbit serum obtained by immunizing a rabbit with the SARS-CoV strain Frankfurt 1; format: binding; parameters: Binding of a rabbit serum to linear peptides / Binding of a rabbit serum to looped peptides / Rabbit serum linear peptides / Rabbit serum looped peptides / Binding of a rabbit serum to linear peptides of protein N of SARS-CoV Urbani (Rabbit serum linear peptides) / Binding of a rabbit serum to looped/cyclic peptides of protein N of SARS-CoV Urbani (Rabbit serum looped peptides): unit not given here
[4] = tested on: control sera (pooled serum of ten healthy LUMC hospital workers; commercial negative donor pooled serum from the Dutch bloodbank); format: binding, human; parameters: Binding of Control serum LUMC to linear peptides / Binding of Control serum Blood-bank to linear peptides / Binding of Control serum LUMC to looped peptides / Binding of Control Serum Blood-Bank to Looped peptides / Binding of Control serum LUMC to linear peptides of the protein M of SARS-CoV Urbani / Binding of Control serum Blood-bank to linear peptides of the protein M of SARS-CoV Urbani / Binding of Control serum LUMC to looped peptides of the protein M of SARS-CoV Urbani / Binding of Control Serum Blood-Bank to Looped peptides of the protein M of SARS-CoV Urbani: unit not given here

Sequence | Binding of serum 1a to linear peptides of protein N of SARS-CoV Urbani [1] | Binding of serum 1a to looped/cyclic peptides of protein N of SARS-CoV Urbani [1] | Binding of serum 1b to linear peptides of protein N of SARS-CoV Urbani [1] | Binding of serum 1b to looped/cyclic peptides of protein N of SARS-CoV Urbani [1] | Binding of serum 2 to linear peptides of protein N of SARS-CoV Urbani [1] | Binding of serum 2 to looped/cyclic peptides of protein N of SARS-CoV Urbani [1] | Binding of serum 6 to linear peptides of protein N of SARS-CoV Urbani [1] | Binding of serum 6 to looped/cyclic peptides of protein N of SARS-CoV Urbani [1] | Binding of serum 37 to linear peptides of protein N of SARS-CoV Urbani [1] | Binding of serum 37 to looped/cyclic peptides of protein N of SARS-CoV Urbani [1] | Binding of serum 62 to linear peptides of protein N of SARS-CoV Urbani [1] | Binding of serum 62 to looped/cyclic peptides of protein N of SARS-CoV Urbani [1] | Binding of serum London to linear peptides of protein N of SARS-CoV Urbani [1] | Binding of serum London to looped/cyclic peptides of protein N of SARS-CoV Urbani [1] | Binding of serum SARS-green to linear peptides of protein N of SARS-CoV Urbani [1] | Binding of serum SARS-green to looped/cyclic peptides of protein N of SARS-CoV Urbani [1] | Binding of serum SARS-yellow to linear peptides of protein N of SARS-CoV Urbani [1] | Binding of serum SARS-yellow to looped/cyclic peptides of protein N of SARS-CoV Urbani [1] | Binding of Control Serum Blood-Bank to Looped peptides [4] | Binding of Control serum Blood-bank to linear peptides [4] | also measured
NGARPKQRRPQGLPN | 0.2 | 0.3 | 0.1 | 0.2 | 0.2 | 0.3 | 0.1 | 0.4 | 0.7 | 0.6 | 0.5 | 0.5 | 0.4 | 0.5 | 0.3 | 0.4 | 0.5 | 0.4 | 0.6 | 0.7 | Binding of antibody 03-018 to linear peptides of the N protein of SARS-CoV Urbani [2]: 0.1; Binding of antibody 03-018 to looped/cyclic peptides of the N protein of SARS-CoV Urbani [2]: 0.3; Binding of a rabbit serum to linear peptides of protein N of SARS-CoV Urbani (Rabbit serum linear peptides) [3]: 0.1; Binding of a rabbit serum to looped/cyclic peptides of protein N of SARS-CoV Urbani (Rabbit serum looped peptides) [3]: 0.3; Binding of Control serum LUMC to linear peptides [4]: 0.6; Binding of Control serum LUMC to looped peptides [4]: 0.6
NGGRNGARPKQRRPQ | 0.2 | 0.3 | 0.1 | 0.2 | 0.2 | 0.3 | 0.2 | 0.3 | 0.7 | 0.6 | 0.7 | 0.5 | 0.5 | 0.3 | 0.5 | 0.4 | 0.5 | 0.5 | 0.7 | 0.6 | Binding of antibody 03-018 to linear peptides of the N protein of SARS-CoV Urbani [2]: 0.2; Binding of antibody 03-018 to looped/cyclic peptides of the N protein of SARS-CoV Urbani [2]: 0.3; Binding of a rabbit serum to linear peptides of protein N of SARS-CoV Urbani (Rabbit serum linear peptides) [3]: 0.1; Binding of a rabbit serum to looped/cyclic peptides of protein N of SARS-CoV Urbani (Rabbit serum looped peptides) [3]: 1.1; Binding of Control serum LUMC to linear peptides [4]: 0.6; Binding of Control serum LUMC to looped peptides [4]: 0.7
NGPQSNQRSAPRITF | 0.2 | 0.3 | 0.1 | 0.2 | 0.2 | 0.5 | 0.2 | 0.3 | 0.8 | 0.8 | 0.5 | 0.6 | 0.4 | 0.5 | 0.4 | 0.5 | 0.5 | 0.6 | 0.7 | 0.8 | Recognition of the peptide by antibody 03-018 [2]: recognized; Recognition of the peptide by the rabbit serum [3]: also recognized; Binding of Control serum LUMC to linear peptides [4]: 0.6; Binding of Control serum LUMC to looped peptides [4]: 0.8
NNNAATVLQLPQGTT | 0.2 | 0.4 | 0.1 | 0.3 | 0.2 | 0.5 | 0.1 | 0.2 | 0.7 | 0.6 | 0.5 | 0.5 | 0.5 | 0.5 | 0.4 | 0.5 | 0.7 | 0.4 | 0.7 | 0.8 | Binding of antibody 03-018 to linear peptides of the N protein of SARS-CoV Urbani [2]: 0.1; Binding of antibody 03-018 to looped/cyclic peptides of the N protein of SARS-CoV Urbani [2]: 0.3; Binding of a rabbit serum to linear peptides of protein N of SARS-CoV Urbani (Rabbit serum linear peptides) [3]: 0.1; Binding of a rabbit serum to looped/cyclic peptides of protein N of SARS-CoV Urbani (Rabbit serum looped peptides) [3]: 0.4; Binding of Control serum LUMC to linear peptides [4]: 0.7; Binding of Control serum LUMC to looped peptides [4]: 0.8
